Source: publication PMC10762035, “Molecular basis of human trace amine-associated receptor 1 activation” (Nature Communications, 2024)
Changes are numbered by the printed parent chain. Several values for one entry are separate records, joined by “and”; a condition that tells them apart may be missing. Identical values can stand only once.

Key:
Assay type in all cases: cell-based
hTA1 W264F = target: T1, hTA1 W264F (Homo sapiens, UniProt Q96RJ0, W264F); assay: GloSensor cAMP accumulation assay, W264F mutant;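 note: cells transiently transfected with receptor plus GloSensor, luminescence read 30 min after agonist addition at room temperature, concentration-response curves fitted by log(agonist) vs response regression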
T1 construct: expressed in transfected cells; host or cells: HEK293T
T1 sequence (Q96RJ0 1-339 W264F): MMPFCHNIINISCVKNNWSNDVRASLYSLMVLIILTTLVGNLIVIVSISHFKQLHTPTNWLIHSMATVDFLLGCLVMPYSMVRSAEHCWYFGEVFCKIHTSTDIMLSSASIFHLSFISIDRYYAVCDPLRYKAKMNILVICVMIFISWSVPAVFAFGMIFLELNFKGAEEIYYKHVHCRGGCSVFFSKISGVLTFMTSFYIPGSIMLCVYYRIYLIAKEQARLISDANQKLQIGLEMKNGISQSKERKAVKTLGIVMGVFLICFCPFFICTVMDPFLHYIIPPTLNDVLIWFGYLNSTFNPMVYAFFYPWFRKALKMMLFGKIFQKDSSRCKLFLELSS

hTA1 V184P = target: T2, hTA1 V184P (Homo sapiens, UniProt Q96RJ0, V184P); assay: GloSensor cAMP accumulation assay, V184P mutant; conditions: for cAMP accumulation response, single replicate values (source data, Supplementary Figure 5): hTA1 V184P (N=2), log[Compound]
T2 construct: expressed in transfected cells; host or cells: HEK293T
T2 sequence (Q96RJ0 1-339 V184P): T1 sequence (Q96RJ0 1-339 W264F) with V184P, F264W

hTA1 C88/178S = target: T3, hTA1 C88/178S (Homo sapiens, UniProt Q96RJ0, C178S/C88S); assay: GloSensor cAMP accumulation assay, C88S/C178S double mutant; conditions: for Normalized Luminescence Counts (N=2): log[Compound], single replicate values
T3 construct: expressed in transfected cells; host or cells: HEK293T
T3 sequence (Q96RJ0 1-339 C88S/C178S): T1 sequence (Q96RJ0 1-339 W264F) with C88S, C178S, F264W

hTA1 T271N = target: T4, hTA1 T271N (Homo sapiens, UniProt Q96RJ0, T271N); assay: GloSensor cAMP accumulation assay, T271N mutant; conditions: for Normalized Luminescence Counts for Concentration Response Curves: log[Agonist], single replicates
T4 construct: expressed in transfected cells; host or cells: HEK293T
T4 sequence (Q96RJ0 1-339 T271N): T1 sequence (Q96RJ0 1-339 W264F) with F264W, T271N

[1] = hTA1 V184P mutant minus WT average
[2] = C88S, C178S, each row is one independent experiment, 3 replicates

NCCc1ccccc1 [β-PEA, β-phenethylamine]
ΔEmax values (each mutant value - WT average) (hTA1 W264F; W246F mutant (so in the source) minus WT average): 0
pEC50 values, Mean (hTA1 W264F; W246F mutant (so in the source), each line an independent experiment, 3 replicates): 5.329 and 5.8775
Emax values, Mean (hTA1 W264F; W246F mutant (so in the source), β-PEA = 100, each line an independent experiment, 3 replicates): 100
Span ± SEM (Emax normalized to β-PEA) (hTA1 W264F; W264F, n=2): 100 ± 4.75
pEC50 ± SEM (hTA1 W264F; W264F, n=2): 5.6 ± 0.06
EC50 (hTA1 W264F; W264F, n=2, read-out: EC50): 2490 nM
reduction in potency vs wild type (hTA1 V184P; V184P): 3 fold
Span ± SEM (Emax normalized to β-PEA) (hTA1 V184P; V184P, n=2): 100 ± 1.96
pEC50 ± SEM (hTA1 V184P; V184P, n=2): 6.49 ± 0.04
EC50 (hTA1 V184P; V184P, n=2, read-out: EC50): 321 nM
cAMP accumulation response, single replicate values (source data, Supplementary Figure 5) (hTA1 V184P; M = -5): 83.3536 and 92.5674 and 99.6475 and 104.399 and 96.8854 and 100.441
cAMP accumulation response, single replicate values (source data, Supplementary Figure 5) (hTA1 V184P; M = -5.522): 95.962 and 88.397 and 84.7115 and 96.8487 and 73.2445 and 97.875
cAMP accumulation response, single replicate values (source data, Supplementary Figure 5) (hTA1 V184P; M = -6): 78.5043 and 69.7754 and 70.1634 and 94.7595 and 71.9984 and 76.7632
cAMP accumulation response, single replicate values (source data, Supplementary Figure 5) (hTA1 V184P; M = -6.522): 42.813 and 37.5757 and 33.5992 and 65.1077 and 56.2745 and 55.2115
cAMP accumulation response, single replicate values (source data, Supplementary Figure 5) (hTA1 V184P; M = -7): 14.3957 and 16.7234 and 14.2987 and 30.7277 and 25.9995 and 32.4504
cAMP accumulation response, single replicate values (source data, Supplementary Figure 5) (hTA1 V184P; M = -7.522): 8.4795 and 4.503 and 3.727 and 12.5114 and 6.1339 and 9.909
cAMP accumulation response, single replicate values (source data, Supplementary Figure 5) (hTA1 V184P; M = -8): 2.078 and 0.1386 and 0.7205 and 5.731 and 6.5 and 4.265
cAMP accumulation response, single replicate values (source data, Supplementary Figure 5) (hTA1 V184P; M = -8.522): 1.496 and -0.05538 and 0.3326 and 2.249 and 1.809 and 2.505
cAMP accumulation response, single replicate values (source data, Supplementary Figure 5) (hTA1 V184P; M = -9): 1.011 and 0.1386 (2×) and 2.652 and -0.3902 and 1.626
cAMP accumulation response, single replicate values (source data, Supplementary Figure 5) (hTA1 V184P; M = -9.522): 0.7205 and -0.2494 and 0.4296 and -0.02371 and -1.123 and -0.1703
cAMP accumulation response, single replicate values (source data, Supplementary Figure 5) (hTA1 V184P; M = -10): 1.205 and -0.05538 and 0.3326 and -0.207 and -0.5002 and 0.4161
cAMP accumulation response, single replicate values (source data, Supplementary Figure 5) (hTA1 V184P; M = -10.522): 0.8175 and 0.6235 and -0.1524 and -0.3169 and -1.27 and -0.6101
cAMP accumulation response, single replicate values (source data, Supplementary Figure 5) (hTA1 V184P; M = -11): 0.04161 and -0.4433 and -0.1524 and 0.5261 and 0.1229 and -0.4269
cAMP accumulation response, single replicate values (source data, Supplementary Figure 5) (hTA1 V184P; M = -11.522): 1.205 and 0.1386 and 0.2356 and 0.7826 and 0.5261 and 0.3062
cAMP accumulation response, single replicate values (source data, Supplementary Figure 5) (hTA1 V184P; M = -12): 0.8175 (3×) and -0.3902 and -0.5735 and 0.0496
cAMP accumulation response, single replicate values (source data, Supplementary Figure 5) (hTA1 V184P; M = -12.522): 2.175 and 1.496 and 1.205 and 0.08625 and 0.1962 and -0.7201
ΔEmax values (each mutant value - WT average), Mean (hTA1 V184P; [1]): 0
ΔpEC50 values (each mutant value - WT average), Mean (hTA1 V184P; [1]): -0.7478 and -0.4527
pEC50 values, Mean (hTA1 V184P; hTA1 V184P mutant, Figure 3B source data, each grid row a separate experiment, 3 replicates): 6.346 and 6.641
Emax values, Mean (hTA1 V184P; hTA1 V184P mutant, β-PEA set to 100, each grid row a separate experiment, 3 replicates): 100
Span ± SEM (Emax normalized to β-PEA) (hTA1 C88/178S; C88/178S, n=2): 100 ± 2.48
pEC50 ± SEM (hTA1 C88/178S; C88/178S, n=2): 6.88 ± 0.05
EC50 (hTA1 C88/178S; C88/178S, n=2, read-out: EC50): 131 nM
pEC50 values, Mean (hTA1 C88/178S; [2]): 6.846 and 6.92
ΔEmax values (each mutant value - WT average), Mean (hTA1 C88/178S; [2]): 0
ΔpEC50 values (each mutant value - WT average), Mean (hTA1 C88/178S; [2]): -0.2478 and -0.1738
Normalized Luminescence Counts (N=2) (hTA1 C88/178S; C88S, C178S, M = -5): 101.882 and 95.4366 and 102.899 and 85.0446 and 70.847 and 114.648
Normalized Luminescence Counts (N=2) (hTA1 C88/178S; C88S, C178S, M = -5.522): 95.8888 and 94.7581 and 92.1574 and 110.721 and 84.1384 and 118.726
Normalized Luminescence Counts (N=2) (hTA1 C88/178S; C88S, C178S, M = -6): 93.4012 and 85.4861 and 88.3694 and 88.8206 and 85.1957 and 105.284
Normalized Luminescence Counts (N=2) (hTA1 C88/178S; C88S, C178S, M = -6.522): 70.73 and 60.7795 and 60.3272 and 66.7689 and 68.1283 and 68.2793
Normalized Luminescence Counts (N=2) (hTA1 C88/178S; C88S, C178S, M = -7): 45.3449 and 38.504 and 42.0658 and 45.3213 and 30.2174 and 49.8525
Normalized Luminescence Counts (N=2) (hTA1 C88/178S; C88S, C178S, M = -7.522): 20.2426 and 24.5959 and 17.7549 and 22.8165 and 30.2174 and 24.931
Normalized Luminescence Counts (N=2) (hTA1 C88/178S; C88S, C178S, M = -8): 8.37 and 6.617 and 6.9 and 9.072 and 8.317 and 8.6188
Normalized Luminescence Counts (N=2) (hTA1 C88/178S; C88S, C178S, M = -8.522): 1.02 and 2.433 and 0.1154 and 4.692 and 3.483 and 4.843
Normalized Luminescence Counts (N=2) (hTA1 C88/178S; C88S, C178S, M = -9): 0.5677 and 0.7373 and -0.4499 and -0.2925 (2×) and 1.218
Normalized Luminescence Counts (N=2) (hTA1 C88/178S; C88S, C178S, M = -9.522): 0.002362 and 0.3416 and -0.5065 and -0.8967 and 0.3116 and 0.009559
Normalized Luminescence Counts (N=2) (hTA1 C88/178S; C88S, C178S, M = -10): -0.9588 and 0.002362 and -0.3934 and -1.652 and -0.4436 and -1.199
Normalized Luminescence Counts (N=2) (hTA1 C88/178S; C88S, C178S, M = -10.522): -1.185 and -0.563 and -1.0153 and -1.803 and 0.009559 and -1.35
Normalized Luminescence Counts (N=2) (hTA1 C88/178S; C88S, C178S, M = -11): -0.05417 and -0.2238 and 0.4547 and -0.2925 and -1.652 and -0.7456
Normalized Luminescence Counts (N=2) (hTA1 C88/178S; C88S, C178S, M = -11.522): 0.172 and 0.1154 and 0.7939 and 0.1606 and -1.954 and -0.4436
Normalized Luminescence Counts (N=2) (hTA1 C88/178S; C88S, C178S, M = -12): 0.172 and -0.6195 and -0.5065 and -0.1415 and -1.35 and 0.9158
Normalized Luminescence Counts (N=2) (hTA1 C88/178S; C88S, C178S, M = -12.522): -0.2803 and 0.2285 and 0.002362 and -1.199 and 0.4627 and 0.6137
Emax values, Mean (hTA1 C88/178S; C88S, C178S, normalized (β-PEA = 100), each row is one independent experiment, 3 replicates): 100
pEC50 values, Mean (hTA1 T271N; T271N mutant, Figure 5B, each row one independent experiment (3 replicates)): 6.643 and 6.211
Emax values, Mean (hTA1 T271N; T271N mutant, Figure 5B, β-PEA = 100, each row one independent experiment (3 replicates)): 100
Normalized Luminescence Counts for Concentration Response Curves (hTA1 T271N; T271N, M -7): 26.2249 and 22.04 and 25.7454 and 13.723 and 18.7522 and 17.914
Normalized Luminescence Counts for Concentration Response Curves (hTA1 T271N; T271N, M -7.522): 13.7138 and 6.913 and 9.921 and 7.175 and 4.66 and 5.236
Normalized Luminescence Counts for Concentration Response Curves (hTA1 T271N; T271N, M -8): 4.385 and 5.17 and 5.257 and 2.984 (2×) and 1.569
Normalized Luminescence Counts for Concentration Response Curves (hTA1 T271N; T271N, M -8.522): 2.467 and 1.9 and 1.508 and 0.2596 and -0.631 and 0.5215
Normalized Luminescence Counts for Concentration Response Curves (hTA1 T271N; T271N, M -9): 0.4181 and 0.5052 and 1.246 and -0.2643
Span ± SEM (Emax normalized to β-PEA) (hTA1 T271N; T271N, n=2): 100 ± 3.3
pEC50 ± SEM (hTA1 T271N; T271N, n=2): 6.43 ± 0.06
EC50 (hTA1 T271N; T271N, n=2, read-out: EC50): 374 nM
